# Patent US10335399B2, “Chromane, isochromane and dihydroisobenzofuran derivatives as mGluR2—negative allosteric modulators, compositions, and their use” (Merck Sharp & Dohme Corp., priority 2016, dated 2019)
# Target: recombinant human mGluR2 (Homo sapiens (Human), UniProt Q14416)
# Assay: FLIPR Ca2+ mobilization assay: inhibition of glutamate-dependent mGluR2 activity
# Assay type: cell-based
# Conditions: CHO dhfr- cells stably expressing recombinant human mGluR2 and Gα16, Fluo-4 AM, FLIPR384; inhibition of response to 2,500 nM glutamate
# Method: Inhibition constants (IC50s; the concentration of compound required to provide 50% of maximal activity) are determined as follows. The compounds of the invention were tested in a fluorescence laser imaging plate reader based assay. This assay is a common functional assay to monitor Ca^2+ mobilization in whole cells expressing recombinant receptor coupled with a promiscuous G-protein. CHO (Chinese hamster ovary) dhfr− cells stably expressing recombinant human mGluR2 and Gα16 loaded with Fluo-4 AM (Invitrogen, Carlsbad Calif., USA) were treated with various concentrations of each of the tested compounds of the invention and the Ca^2+ response was monitored on a FLIPR384 instrument (Molecular Devices, Sunnydale Calif., USA). […] The maximum calcium response at each concentration of compound for agonist or antagonist were plotted as dose responses and the curves were fitted with a four parameter logistic equation giving IC50 and Hill coefficient using the iterative non-linear curve fitting software ADA (Merck & Co., Inc.). Data in the following table lists the activity of each compound to inhibit glutamate-dependent mGluR2 activity in this cellular assay.
# Sequence of recombinant human mGluR2 (Q14416 19-872): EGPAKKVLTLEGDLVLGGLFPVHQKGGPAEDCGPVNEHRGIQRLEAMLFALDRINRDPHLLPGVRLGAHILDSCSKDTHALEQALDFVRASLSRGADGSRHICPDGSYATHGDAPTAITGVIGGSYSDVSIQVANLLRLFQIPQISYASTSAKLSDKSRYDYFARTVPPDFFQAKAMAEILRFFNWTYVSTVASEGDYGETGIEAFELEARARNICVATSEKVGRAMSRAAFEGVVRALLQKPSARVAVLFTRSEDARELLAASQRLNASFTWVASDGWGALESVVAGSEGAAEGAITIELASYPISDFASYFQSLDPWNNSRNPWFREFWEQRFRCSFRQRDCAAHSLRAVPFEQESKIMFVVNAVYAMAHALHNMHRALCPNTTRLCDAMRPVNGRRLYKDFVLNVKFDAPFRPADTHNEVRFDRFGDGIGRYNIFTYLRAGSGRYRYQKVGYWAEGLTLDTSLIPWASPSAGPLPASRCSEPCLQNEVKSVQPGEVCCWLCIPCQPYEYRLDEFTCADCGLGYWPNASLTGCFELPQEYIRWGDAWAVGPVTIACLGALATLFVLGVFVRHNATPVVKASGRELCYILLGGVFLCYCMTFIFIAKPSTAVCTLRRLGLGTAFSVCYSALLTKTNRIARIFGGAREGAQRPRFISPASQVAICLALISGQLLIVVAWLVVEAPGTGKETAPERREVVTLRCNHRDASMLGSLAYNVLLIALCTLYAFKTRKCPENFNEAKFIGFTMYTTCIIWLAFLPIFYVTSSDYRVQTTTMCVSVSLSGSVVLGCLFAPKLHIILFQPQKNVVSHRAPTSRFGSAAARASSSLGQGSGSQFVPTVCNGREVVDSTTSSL
row,IC50 [µM],Compound
1,0.179,"NC(=O)c1cc(-c2ccc(F)cc2F)c2c(n1)O[C@@H](CO)CC2 (single isomer, unassigned) [Example 2-1B]"
2,0.018,"NC(=O)c1cc(-c2ccc(F)cc2)c2c(n1)OC(COC(F)F)CC2 (single isomer, unassigned) [Example 3-2A, (S)- or (R)-2-((difluoro-methoxy)methyl)-5-(4-fluorophenyl)-3,4-dihydro-2H-pyrano[2,3-b]pyridine-7-carboxamide]"
3,0.086,"NC(=O)c1cc(-c2ccc(F)cc2)c2c(n1)OC(COC(F)F)CC2 (single isomer, unassigned) [Example 3-2B, (R)- or (S)-2-((difluoro-methoxy)methyl)-5-(4-fluorophenyl)-3,4-dihydro-2H-pyrano[2,3-b]pyridine-7-carboxamide]"
4,0.536,"Cc1ncc(-c2cc(C(N)=O)nc3c2CCC(COC(F)F)O3)s1 (single isomer, unassigned) [Example 3-3A, (S)- or (R)-2-((difluoro-methoxy)methyl)-5-(2-methylthiazol-5-yl)-3,4-dihydro-2H-pyrano[2,3-b]pyridine-7-carboxamide]"
5,2.52,"Cc1ncc(-c2cc(C(N)=O)nc3c2CCC(COC(F)F)O3)s1 (single isomer, unassigned) [Example 3-3B, (R)- or (S)-2-((difluoro-methoxy)methyl)-5-(2-methylthiazol-5-yl)-3,4-dihydro-2H-pyrano[2,3-b]pyridine-7-carboxamide]"
6,0.274,"NC(=O)c1cc(-c2cnn(C(F)F)c2)c2c(n1)OC(COC(F)F)CC2 (single isomer, unassigned) [Example 3-4A, (S)- or (R)-2-((difluoro-methoxy)methyl)-5-(1-(difluoromethyl)-1H-pyrazol-4-yl)-3,4-dihydro-2H-pyrano[2,3-b]pyridine-7-carboxamide]"
7,1.49,"NC(=O)c1cc(-c2cnn(C(F)F)c2)c2c(n1)OC(COC(F)F)CC2 (single isomer, unassigned) [Example 3-4B, (R)- or (S)-2-((difluoro-methoxy)methyl)-5-(1-(difluoromethyl)-1H-pyrazol-4-yl)-3,4-dihydro-2H-pyrano[2,3-b]pyridine-7-carboxamide]"
8,0.026,"COC[C@@H]1CCc2c(-c3ccc(F)cc3F)cc(C(N)=O)nc2O1 (single isomer, unassigned) [Example 3-5A]"
9,0.027,"COC[C@H]1CCc2c(-c3ccc(F)cc3F)cc(C(N)=O)nc2O1 (single isomer, unassigned) [Example 3-5B]"
10,0.052,"NC(=O)c1cc(-c2ccc(F)cc2F)c2c(n1)O[C@H](CF)CC2 (single isomer, unassigned) [Example 3-6A]"
11,0.01,"NC(=O)c1cc(-c2ccc(F)cc2F)c2c(n1)O[C@@H](CF)CC2 (single isomer, unassigned) [Example 3-6B]"
12,0.012,"NC(=O)c1cc(-c2ccc(F)cc2F)c2c(n1)O[C@H](CC(F)(F)F)CC2 (single isomer, unassigned) [Example 3-8A]"
13,0.024,"NC(=O)c1cc(-c2ccc(F)cc2F)c2c(n1)O[C@@H](CC(F)(F)F)CC2 (single isomer, unassigned) [Example 3-8B]"
14,0.007,"C[C@@H]1Cc2c(-c3ccc(F)cc3F)cc(C(N)=O)nc2O[C@@H]1COC(F)F (single isomer, unassigned) [Example 3-9A]"
15,0.019,"C[C@H]1Cc2c(-c3ccc(F)cc3F)cc(C(N)=O)nc2O[C@@H]1COC(F)F (single isomer, unassigned) [Example 3-9B]"
16,0.009,"C[C@H]1Cc2c(-c3ccc(F)cc3F)cc(C(N)=O)nc2O[C@H]1COC(F)F (single isomer, unassigned) [Example 3-9D]"

# Second part, the compound before the results:
row,Compound,IC50 [µM]
1,"NC(=O)c1cc(-c2ccc(F)cc2F)c2c(n1)[C@@H]1CC[C@H](C2)O1 (single isomer, unassigned) [Example 1-2B]",0.021
2,"NC(=O)c1cc(-c2ccc(Cl)cc2F)c2c(n1)[C@H]1CC[C@@H](C2)O1 (single isomer, unassigned) [Example 1-3A, (6S,9R)- or (6R,9S)-4-(4-chloro-2-fluorophenyl)-6,7,8,9-tetrahydro-5H-6,9-epoxycyclo-hepta[b]pyridine-2-carboxamide]",0.065
3,"NC(=O)c1cc(-c2ccc(Cl)cc2F)c2c(n1)[C@@H]1CC[C@H](C2)O1 (single isomer, unassigned) [Example 1-3B, (6R,9S)- or (6S,9R)-4-(4-chloro-2-fluorophenyl)-6,7,8,9-tetrahydro-5H-6,9-epoxycyclo-hepta[b]pyridine-2-carboxamide]",0.012
4,"Cn1cc(-c2cc(C(N)=O)nc3c2CC2CCC3O2)cn1 (single isomer, unassigned) [Example 1-4A, (6R,9S)- or (6S,9R)-4-(1-methyl-1H-pyrazol-4-yl)-6,7,8,9-tetrahydro-5H-6,9-epoxycyclo-hepta[b]pyridine-2-carboxamide]",> 3
5,"Cn1cc(-c2cc(C(N)=O)nc3c2CC2CCC3O2)cn1 (single isomer, unassigned) [Example 1-4B, (6S,9R)- or (6R,9S)-4-(1-methyl-1H-pyrazol-4-yl)-6,7,8,9-tetrahydro-5H-6,9-epoxycyclo-hepta[b]pyridine-2-carboxamide]",1.77
6,"NC(=O)c1cc(-c2cnn(C(F)F)c2)c2c(n1)C1CCC(C2)O1 (single isomer, unassigned) [Example 1-5A, (6R,9S)- or (6S,9R)-4-(1-(difluoromethyl)-1H-pyrazol-4-yl)-6,7,8,9-tetrahydro-5H-6,9-epoxycyclo-hepta[b]pyridine-2-carboxamide]",> 3
7,"NC(=O)c1cc(-c2cnn(C(F)F)c2)c2c(n1)C1CCC(C2)O1 (single isomer, unassigned) [Example 1-5B, (6S,9R)- or (6R,9S)-4-(1-(difluoromethyl)-1H-pyrazol-4-yl)-6,7,8,9-tetrahydro-5H-6,9-epoxycyclo-hepta[b]pyridine-2-carboxamide]",0.326
8,"NC(=O)c1cc(-c2ncc(F)cc2F)c2c(n1)[C@H]1CC[C@@H](C2)O1 (single isomer, unassigned) [Example 1-6A]",> 3
9,"NC(=O)c1cc(-c2ncc(F)cc2F)c2c(n1)[C@@H]1CC[C@H](C2)O1 (single isomer, unassigned) [Example 1-6B]",1.8
10,"NC(=O)c1cc(-c2ncc(Cl)cc2F)c2c(n1)[C@H]1CC[C@@H](C2)O1 (single isomer, unassigned) [Example 1-7A]",> 3
11,"NC(=O)c1cc(-c2ncc(Cl)cc2F)c2c(n1)[C@@H]1CC[C@H](C2)O1 (single isomer, unassigned) [Example 1-7B]",0.172
12,"CC(C)[C@@H]1CCc2c(-c3ccc(F)cc3F)cc(C(N)=O)nc2O1 (single isomer, unassigned) [Example 2-4A]",0.02
13,"CC(C)[C@H]1CCc2c(-c3ccc(F)cc3F)cc(C(N)=O)nc2O1 (single isomer, unassigned) [Example 2-4B]",0.069
14,"C[C@@H]1CCc2c(-c3ccc(F)cc3F)cc(C(N)=O)nc2O1 (single isomer, unassigned) [Example 2-6A]",0.01
15,"C[C@H]1CCc2c(-c3ccc(F)cc3F)cc(C(N)=O)nc2O1 (single isomer, unassigned) [Example 2-6B]",0.026
16,"C[C@@]1(COC(F)F)CCc2c(-c3ccc(F)cc3F)cc(C(N)=O)nc2O1 (single isomer, unassigned) [Example 2-8A]",0.008
17,"C[C@]1(COC(F)F)CCc2c(-c3ccc(F)cc3F)cc(C(N)=O)nc2O1 (single isomer, unassigned) [Example 2-8B]",0.014
18,"C[C@H](OC(F)F)[C@@H]1CCc2c(-c3ccc(F)cc3F)cc(C(N)=O)nc2O1 (single isomer, unassigned) [Example 2-9A]",0.018
19,"CN(C[C@@H]1CCc2c(-c3ccc(F)cc3F)cc(C(N)=O)nc2O1)CC(F)(F)F (single isomer, unassigned) [Example 4-1A]",0.025
20,"CN(C[C@H]1CCc2c(-c3ccc(F)cc3F)cc(C(N)=O)nc2O1)CC(F)(F)F (single isomer, unassigned) [Example 4-1B]",0.074
21,"NC(=O)c1cc(-c2ccc(F)cc2F)c2c(n1)O[C@@H](CNCC(F)(F)F)CC2 (single isomer, unassigned) [Example 4-2B]",0.028
22,"NC(=O)c1cc(-c2ccc(F)cc2F)c2c(n1)[C@H]1CC[C@@H]2O1 (single isomer, unassigned) [Example 5-1A]",0.159
23,"NC(=O)c1cc(-c2ccc(F)cc2F)c2c(n1)[C@@H]1CC[C@H]2O1 (single isomer, unassigned) [Example 5-1B]",0.5
24,"NC(=O)c1cc(-c2ccc(F)cc2F)c2c(n1)COCC2 [Example 1-1, 4-(2,4-difluorophenyl)-5,8-dihydro-6H-pyrano[3,4-b]pyridine-2-carboxamide]",0.277
25,"NC(=O)c1cc(-c2ccc(F)cc2F)c2c(n1)[C@H]1CC[C@@H](C2)O1 [Example 1-2A, (6S,9R)-4-(2,4-difluorophenyl)-6,7,89-tetrahydro-5H-6,9-epoxycyclohepta[b]pyridine-2-carboxamide]",0.376
26,"NC(=O)c1cc(-c2ccc(F)cc2F)c2c(n1)O[C@H](CO)CC2 [Example 2-1A, (S)-5-(2,4-difluorophenyl)-2-(hydroxmethyl)-3,4-dihydro-2H-pyrano[2,3-b]pyridine-7-carboxamide]",0.038
